Assay: xn = mol fraction of the nth substance listed
Settings: 298.15 K, 101.3 kPa

With `CCCC[n+]1ccn(C)c1.F[B-](F)(F)F` + CC#N the viscosity (x2 = 0) was 110 mPa·s, the viscosity (x2 = 0.0982) was 70.9 mPa·s and the viscosity (x2 = 0.2265) was 40.3 mPa·s. It also gave a viscosity (x2 = 0.3047) of 27.7 mPa·s, a viscosity (x2 = 0.4554) of 13.2 mPa·s and a viscosity (x2 = 0.5059) of 10.22 mPa·s. For the same compound, the viscosity (x2 = 0.5469) was 8.25 mPa·s, the viscosity (x2 = 0.6005) was 6.07 mPa·s and the viscosity (x2 = 0.6441) was 4.58 mPa·s. It also gave a viscosity (x2 = 0.6973) of 3.34 mPa·s and a viscosity (x2 = 0.9513) of 0.593 mPa·s.
`CCCC[n+]1ccn(C)c1.F[B-](F)(F)F` + ClCCl showed a viscosity (x2 = 0) of 110 mPa·s.
For `ClCCl` + CCCC[n+]1ccn(C)c1.F[B-](F)(F)F, the viscosity (x1 = 0.199) was 37.2 mPa·s, the viscosity (x1 = 0.2854) was 26.3 mPa·s and the viscosity (x1 = 0.3985) was 17 mPa·s. For the same compound, the viscosity (x1 = 0.5452) was 10.05 mPa·s, the viscosity (x1 = 0.5958) was 7.69 mPa·s and the viscosity (x1 = 0.6471) was 5.92 mPa·s. The viscosity (x1 = 0.6958) was 4.6 mPa·s, the viscosity (x1 = 0.8019) was 2.59 mPa·s and the viscosity (x1 = 0.9015) was 1.12 mPa·s. It also gave a viscosity (x1 = 0.9477) of 0.715 mPa·s and a viscosity (x1 = 1) of 0.401 mPa·s.
Compound `CCCC[n+]1ccn(C)c1.F[B-](F)(F)F` + CN(C)C=O has a viscosity (x2 = 0) of 110 mPa·s, a viscosity (x2 = 0.2041) of 52.2 mPa·s and a viscosity (x2 = 0.3024) of 32.9 mPa·s. The viscosity (x2 = 0.4061) was 20.8 mPa·s, the viscosity (x2 = 0.4408) was 17.6 mPa·s and the viscosity (x2 = 0.5052) was 12.7 mPa·s. The viscosity (x2 = 0.5459) was 11 mPa·s, the viscosity (x2 = 0.6014) was 7.8 mPa·s and the viscosity (x2 = 0.665) was 6.4 mPa·s. It also gave a viscosity (x2 = 0.701) of 5.04 mPa·s, a viscosity (x2 = 0.8008) of 2.91 mPa·s and a viscosity (x2 = 0.9005) of 1.6 mPa·s. It also gave a viscosity (x2 = 0.947) of 1.19 mPa·s.
Compound `CCC(C)=O` + CCCC[n+]1ccn(C)c1.F[B-](F)(F)F has a viscosity (x1 = 0.2004) of 42.2 mPa·s, a viscosity (x1 = 0.3969) of 15.2 mPa·s and a viscosity (x1 = 0.4495) of 11.97 mPa·s. For the same compound, the viscosity (x1 = 0.5) was 9.32 mPa·s, the viscosity (x1 = 0.5521) was 7.13 mPa·s and the viscosity (x1 = 0.6062) was 5.38 mPa·s. The viscosity (x1 = 0.6545) was 4.1 mPa·s, the viscosity (x1 = 0.8137) was 1.55 mPa·s and the viscosity (x1 = 0.8974) was 0.847 mPa·s. For the same compound, the viscosity (x1 = 0.9502) was 0.564 mPa·s and the viscosity (x1 = 1) was 0.373 mPa·s.
In the case of `CC#N` + CCCC[n+]1ccn(C)c1.F[B-](F)(F)F, the viscosity (x1 = 1) is reported as 0.341 mPa·s.
With `CCCC[n+]1ccn(C)c1.F[B-](F)(F)F` + CCC(C)=O the viscosity (x2 = 0) was 110 mPa·s.

From a compilation of properties of binary mixtures (doi:10.1039/b303735e)
